test system: Human whole blood stimulated with a TLR2 agonist (lipoteichoic acid), IL-6 levels; test: IRAK4 Whole Blood Assay; format: cell-based; details: Homo sapiens, lipoteichoic acid 10 μg/mL
Procedure: Human whole blood containing the anti-coagulant ACD-A was plated in 384-well plate (25 μL/well) and incubated with compounds for 60 minutes at 37° C. in a 5% CO2 incubator. The blood was stimulated with a TLR2 agonist, 10 μg/mL final concentration of lipoteichoic acid (Invivogen, San Diego, Calif.) in 25 μL RPMI (Gibco) for 5 hours in a 5% CO2 incubator. At the end of the incubation, plates were centrifuged at 2300 rpm for 5 minutes. Supernatants were harvested and analyzed for IL-6 levels by Flow Cytometry beads assay (BD Biosciences, San Jose, Calif.).

| EC50 [nM] | SMILES |
| --- | --- |
| 950 | CC(C)Nc1cc(-n2ncc3cc(C#N)cnc32)ncc1-c1cn(CCN)nn1 [Example 172, 1-(5-(1-(2-aminoethyl)-1H-1,2,3-triazol-4-yl)-4-(isopropylamino)pyridin-2-yl)-1H-pyrazolo[3,4-b]pyridine-5-carbonitrile] |
| 1710 | CC(F)Cc1cn(-c2cnc(-n3ncc4cc(C#N)cnc43)cc2NC(C)C)nn1 (centres unmarked) [Example 294, 1-(5-(4-(2-fluoropropyl)-1H-1,2,3-triazol-1-yl)-4-(isopropylamino)pyridin-2-yl)-1H-pyrazolo[3,4-b]pyridine-5-carbonitrile] |
| 380 | C[C@@H](CO)Nc1cc(-n2ncc3cc(C#N)cnc32)ncc1-n1cc(CCC(C)(C)O)nn1 [Example 376, (S)-1-(5-(4-(3-hydroxy-3-methylbutyl)-1H-1,2,3-triazol-1-yl)-4-((1-hydroxypropan-2-yl)amino)pyridin-2-yl)-1H-pyrazolo[3,4-b]pyridine-5-carbonitrile] |

target: IRAK4 (Homo sapiens (Human), UniProt Q9NWZ3); test: IRAK4 Inhibition Assay; format: biochemical; details: ATP 500 μM; IRAK4 0.6 nM
Outline: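 Mobility-shift readout: phosphorylated and unphosphorylated fluorescent peptide (1.5 μM) resolved by electrophoresis after a 60 min room-temperature reaction stopped with EDTA. Reaction holds 0.6 nM IRAK4, 500 μM ATP and 1.6% DMSO in HEPES pH 7.2/MgCl2/Brij 35/DTT buffer; percent inhibition set against vehicle and no-enzyme controls.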

Chain of IRAK4 (Q9NWZ3 whole entry, species assumed): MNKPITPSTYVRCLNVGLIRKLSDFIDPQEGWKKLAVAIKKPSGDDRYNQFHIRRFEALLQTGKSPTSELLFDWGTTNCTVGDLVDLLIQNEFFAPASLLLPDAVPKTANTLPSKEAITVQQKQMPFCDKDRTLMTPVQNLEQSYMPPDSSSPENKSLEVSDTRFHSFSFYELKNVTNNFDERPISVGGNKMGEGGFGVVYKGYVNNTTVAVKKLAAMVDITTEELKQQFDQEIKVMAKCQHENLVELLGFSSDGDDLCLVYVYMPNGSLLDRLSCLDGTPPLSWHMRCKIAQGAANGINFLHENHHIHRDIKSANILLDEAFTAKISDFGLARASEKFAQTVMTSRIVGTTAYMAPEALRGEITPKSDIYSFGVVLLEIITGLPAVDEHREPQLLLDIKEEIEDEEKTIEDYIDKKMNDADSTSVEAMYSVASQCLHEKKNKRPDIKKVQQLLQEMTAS

| IC50 [nM] | SMILES |
| --- | --- |
| 48 | CC(C)Nc1cc(-n2ncc3cc(C#N)cnc32)ncc1-n1cc(CO)nn1 [Example 295, 1-(5-(4-(hydroxymethyl)-1H-1,2,3-triazol-1-yl)-4-(isopropylamino)pyridin-2-yl)-1H-pyrazolo[3,4-b]pyridine-5-carbonitrile] |
| 28 | CC(C)Nc1cc(-n2ncc3cc(C#N)cnc32)ncc1-n1cc(-c2ccccc2)nn1 [Example 297, 1-(4-(isopropylamino)-5-(4-phenyl-1H-1,2,3-triazol-1-yl)pyridin-2-yl)-1H-pyrazolo[3,4-b]pyridine-5-carbonitrile] |
| 194 | CC(C)Nc1cc(-n2ncc3cc(C#N)cnc32)ncc1-n1cc(C(C)(C)O)nn1 [Example 298, 1-(5-(4-(2-hydroxypropan-2-yl)-1H-1,2,3-triazol-1-yl)-4-(isopropylamino)pyridin-2-yl)-1H-pyrazolo[3,4-b]pyridine-5-carbonitrile] |
| 44 | CC(C)Nc1cc(-n2ncc3cc(C#N)cnc32)ncc1-n1cc(-c2cccnc2)nn1 [Example 299, 1-(4-(isopropylamino)-5-(4-(pyridin-3-yl)-1H-1,2,3-triazol-1-yl)pyridin-2-yl)-1H-pyrazolo[3,4-b]pyridine-5-carbonitrile] |
| 22 | CC(C)Nc1cc(-n2ncc3cc(C#N)cnc32)ncc1-n1cc(C2CC2)nn1 [Example 300, 1-(5-(4-cyclopropyl-1H-1,2,3-triazol-1-yl)-4-(isopropylamino)pyridin-2-yl)-1H-pyrazolo[3,4-b]pyridine-5-carbonitrile] |
| 22 | CC(C)Nc1cc(-n2ncc3cc(C#N)cnc32)ncc1-n1cc(CN2CCOCC2)nn1 [Example 301, 1-(4-(isopropylamino)-5-(4-(morpholinomethyl)-1H-1,2,3-triazol-1-yl)pyridin-2-yl)-1H-pyrazolo[3,4-b]pyridine-5-carbonitrile] |
| 29 | CC(C)Nc1cc(-n2ncc3cc(C#N)cnc32)ncc1-n1cc(CCO)nn1 [Example 302, 1-(5-(4-(2-hydroxyethyl)-1H-1,2,3-triazol-1-yl)-4-(isopropylamino)pyridin-2-yl)-1H-pyrazolo[3,4-b]pyridine-5-carbonitrile] |
| 115 | CC(C)Nc1cc(-n2ncc3cc(C#N)cnc32)ncc1-n1cc(-c2ccccn2)nn1 [Example 304, 1-(4-(isopropylamino)-5-(4-(pyridin-2-yl)-1H-1,2,3-triazol-1-yl)pyridin-2-yl)-1H-pyrazolo[3,4-b]pyridine-5-carbonitrile] |
| 56 | CC(C)Nc1cc(-n2ncc3cc(C#N)cnc32)ncc1-n1cc(CC(C)(C)O)nn1 [Example 306, 1-(5-(4-(2-hydroxy-2-methylpropyl)-1H-1,2,3-triazol-1-yl)-4-(isopropylamino)pyridin-2-yl)-1H-pyrazolo[3,4-b]pyridine-5-carbonitrile] |
| 80 | CC(C)Nc1cc(-n2ncc3cc(C#N)cnc32)ncc1-n1cc(CN(C)C)nn1 [Example 308, 1-(5-(4-((dimethylamino)methyl)-1H-1,2,3-triazol-1-yl)-4-(isopropylamino)pyridin-2-yl)-1H-pyrazolo[3,4-b]pyridine-5-carbonitrile] |
| 304 | CC(C)Nc1cc(-n2ncc3cc(C#N)cnc32)ncc1-n1cc(C(N)=O)nn1 [Example 309, 1-(6-(5-cyano-1H-pyrazolo[3,4-b]pyridin-1-yl)-4-(isopropylamino)pyridin-3-yl)-1H-1,2,3-triazole-4-carboxamide] |
| 108 | CC(C)Nc1cc(-n2ncc3cc(C#N)cnc32)ncc1-n1cc(CN)nn1 [Example 310, 1-(5-(4-(aminomethyl)-1H-1,2,3-triazol-1-yl)-4-(isopropylamino)pyridin-2-yl)-1H-pyrazolo[3,4-b]pyridine-5-carbonitrile] |
| 213 | CC(C)Nc1cc(-n2ncc3cc(C#N)cnc32)ncc1-n1cc(C(C)(C)N)nn1 [Example 312, 1-(5-(4-(2-aminopropan-2-yl)-1H-1,2,3-triazol-1-yl)-4-(isopropylamino)pyridin-2-yl)-1H-pyrazolo[3,4-b]pyridine-5-carbonitrile] |
| 115 | CC(C)Nc1cc(-n2ncc3cc(C#N)cnc32)ncc1-n1cc(CNC(N)=O)nn1 [Example 313, 1-((1-(6-(5-cyano-1H-pyrazolo[3,4-b]pyridin-1-yl)-4-(isopropylamino)pyridin-3-yl)-1H-1,2,3-triazol-4-yl)methyl)urea] |
| 93 | CNCc1cn(-c2cnc(-n3ncc4cc(C#N)cnc43)cc2NC(C)C)nn1 [Example 314, 1-(4-(isopropylamino)-5-(4-((methylamino)methyl)-1H-1,2,3-triazol-1-yl)pyridin-2-yl)-1H-pyrazolo[3,4-b]pyridine-5-carbonitrile] |
| 244 | COc1cc(OC)cc(-c2cn(-c3cnc(-n4ncc5cc(C#N)cnc54)cc3NC(C)C)nn2)c1 [Example 316, 1-(5-(4-(3,5-dimethoxyphenyl)-1H-1,2,3-triazol-1-yl)-4-(isopropylamino)pyridin-2-yl)-1H-pyrazolo[3,4-b]pyridine-5-carbonitrile] |
| 60 | CC(C)Nc1cc(-n2ncc3cc(C#N)cnc32)ncc1-n1cc(-c2cncn2C)nn1 [Example 317, 1-(4-(isopropylamino)-5-(4-(1-methyl-1H-imidazol-5-yl)-1H-1,2,3-triazol-1-yl)pyridin-2-yl)-1H-pyrazolo[3,4-b]pyridine-5-carbonitrile] |
| 39 | CCC(C)(O)c1cn(-c2cnc(-n3ncc4cc(C#N)cnc43)cc2NC(C)C)nn1 (centres unmarked) [Example 322, 1-(5-(4-(2-hydroxybutan-2-yl)-1H-1,2,3-triazol-1-yl)-4-(isopropylamino)pyridin-2-yl)-1H-pyrazolo[3,4-b]pyridine-5-carbonitrile] |
| 28 | CC(C)Nc1cc(-n2ncc3cc(C#N)cnc32)ncc1-n1cc(-c2ccncc2)nn1 [Example 326, 1-(4-(isopropylamino)-5-(4-(pyridin-4-yl)-1H-1,2,3-triazol-1-yl)pyridin-2-yl)-1H-pyrazolo [3,4-b]pyridine-5-carbonitrile] |
| 26 | CC(C)Nc1cc(-n2ncc3cc(C#N)cnc32)ncc1-n1cc(CCN)nn1 [Example 328, 1-(5-(4-(2-aminoethyl)-1H-1,2,3-triazol-1-yl)-4-(isopropylamino)pyridin-2-yl)-1H-pyrazolo[3,4-b]pyridine-5-carbonitrile] |
| 34 | CC(C)Nc1cc(-n2ncc3cc(C#N)cnc32)ncc1-n1cc(CF)nn1 [Example 329, 1-(5-(4-(fluoromethyl)-1H-1,2,3-triazol-1-yl)-4-(isopropylamino)pyridin-2-yl)-1H-pyrazolo[3,4-b]pyridine-5-carbonitrile] |
| 3 | CCN[C@H]1CC[C@H](c2cn(-c3cnc(-n4ncc5cc(C#N)cnc54)cc3NC(C)C)nn2)CC1 [Example 356, 1-(5-(4-((1s,4s)-4-(ethylamino)cyclohexyl)-1H-1,2,3-triazol-1-yl)-4-(isopropylamino)pyridin-2-yl)-1H-pyrazolo[3,4-b]pyridine-5-carbonitrile] |
| 2 | CC(C)(O)CCc1cn(-c2cnc(-n3ncc4cc(C#N)cnc43)cc2N[C@H]2CC[C@@H](F)CC2)nn1 [Example 374, 1-(4-(((1r,4r)-4-fluorocyclohexyl)amino)-5-(4-(3-hydroxy-3-methylbutyl)-1H-1,2,3-triazol-1-yl)pyridin-2-yl)-1H-pyrazolo[3,4-b]pyridine-5-carbonitrile] |
| 3 | CC(C)(O)CCc1cn(-c2cnc(-n3ncc4cc(C#N)cnc43)cc2N[C@H]2CC[C@H](O)CC2)nn1 [Example 385, 1-(5-(4-(3-hydroxy-3-methylbutyl)-1H-1,2,3-triazol-1-yl)-4-(((1 s,4s)-4-hydroxycyclohexyl)amino)pyridin-2-yl)-1H-pyrazolo[3,4-b]pyridine-5-carbonitrile] |
| 2 | CC(=O)N[C@H]1CC[C@H](c2cc(-c3cnc(-n4ncc5cc(C#N)cnc54)cc3NC(C)C)on2)CC1 [Example 410, N-((1s,4s)-4-(5-(6-(5-cyano-1H-pyrazolo[3,4-b]pyridin-1-yl)-4-(isopropylamino)pyridin-3-yl)isoxazol-3-yl)cyclohexyl)acetamide] |
| 3 | COC(=O)N[C@H]1CC[C@H](c2cc(-c3cnc(-n4ncc5cc(C#N)cnc54)cc3NC(C)C)on2)CC1 [Example 411, methyl ((1s,4s)-4-(5-(6-(5-cyano-1H-pyrazolo[3,4-b]pyridin-1-yl)-4-(isopropylamino)pyridin-3-yl)isoxazol-3-yl)cyclohexyl)carbamate] |
